Results from patent US8309546B2, “Morpholinopurine derivatives” (Daiichi Sankyo Company, Limited, priority 2008, dated 2012).

How the values were obtained:
[1] = molecular target: T1, human mTOR (His-tagged mTOR (1362C)) (Homo sapiens, UniProt P42345); test: mTOR kinase activity inhibition assay; format: biochemical; settings: HTRF, read-out: IC50 against mTOR
T1 construct: the 1362 to 2549 amino acid portion on the C terminus side of human mTOR; His tag (N); made in house
Method in brief: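 Crude His-tagged mTOR (aa 1362–2549) from stable HEK293 cells, with 8 μg/ml biotinylated peptide in 50 mM HEPES pH 7.5, 20 mM MnCl2; compound diluted in 20 μM ATP solution, reaction 3 h at room temperature. Phospho-peptide detected by HTRF (anti-phospho-S6K Thr389 cryptate/streptavidin-XL665, overnight at 4°C), 665/620 nm ratio. IC50 derived from curve fit of % inhibition.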

[2] = system: S6 (serine 235 and 236) phosphorylation in AN3CA tumor; test: S6 phosphorylation inhibition assay in xenograft; format: in vivo, female nude mouse; settings: Mus musculus, AN3-CA, oral, 6 hr after dosing
Experimental: A tumor section was prepared from a human endometrial cancer cell strain AN3CA tumor mass formed in a female nude mouse as subcutaneously transplanted tumor and a xenograft model was prepared by subcutaneously transplanting the tumor to a female nude mouse. The test compound at a predetermined concentration was orally administered. After a predetermined time, the anesthetized mouse was exsanguinated to death, and a tumor mass was isolated. The tumor mass was crushed using a lysis buffer containing inhibitors of proteases and dephosphorylating enzymes (Cell Signaling Technology, Inc.) and the supernatant was separated by centrifugation to obtain a tumor extract. The protein content of the tumor extract was measured using DC Protein Assay Kit (Bio-Rad Laboratories, Inc.) and phosphorylation conditions of Akt (threonine 308) and S6 (serine 235 and 236) were analyzed by a usual technique of western blotting using tumor extracts containing the same amount of protein. The primary antibody and the secondary antibody used for detecting each molecule were rabbit anti-phospho-Akt(T308) antibody and HRP-labeled goat anti-rabbit IgG antibody or mouse anti-phospho-S6(S235/236) antibody and HRP-labeled sheep anti-mouse IgG antibody.
The signal intensity detected using an image analyzer Typhoon 9400 (GE Healthcare) was quantified, and the phosphorylation inhibition rate (%) was calculated by the following formula. Phosphorylation inhibitory activity (%) of Akt and S6 after treatment with test compound=100−100×(B/A) A: Signal intensity derived from phosphorylated protein in tumor mass isolated from mouse untreated with test compound B: Signal intensity derived from phosphorylated protein in tumor mass isolated from mouse treated with test compound

T1 sequence (P42345 1362-2549): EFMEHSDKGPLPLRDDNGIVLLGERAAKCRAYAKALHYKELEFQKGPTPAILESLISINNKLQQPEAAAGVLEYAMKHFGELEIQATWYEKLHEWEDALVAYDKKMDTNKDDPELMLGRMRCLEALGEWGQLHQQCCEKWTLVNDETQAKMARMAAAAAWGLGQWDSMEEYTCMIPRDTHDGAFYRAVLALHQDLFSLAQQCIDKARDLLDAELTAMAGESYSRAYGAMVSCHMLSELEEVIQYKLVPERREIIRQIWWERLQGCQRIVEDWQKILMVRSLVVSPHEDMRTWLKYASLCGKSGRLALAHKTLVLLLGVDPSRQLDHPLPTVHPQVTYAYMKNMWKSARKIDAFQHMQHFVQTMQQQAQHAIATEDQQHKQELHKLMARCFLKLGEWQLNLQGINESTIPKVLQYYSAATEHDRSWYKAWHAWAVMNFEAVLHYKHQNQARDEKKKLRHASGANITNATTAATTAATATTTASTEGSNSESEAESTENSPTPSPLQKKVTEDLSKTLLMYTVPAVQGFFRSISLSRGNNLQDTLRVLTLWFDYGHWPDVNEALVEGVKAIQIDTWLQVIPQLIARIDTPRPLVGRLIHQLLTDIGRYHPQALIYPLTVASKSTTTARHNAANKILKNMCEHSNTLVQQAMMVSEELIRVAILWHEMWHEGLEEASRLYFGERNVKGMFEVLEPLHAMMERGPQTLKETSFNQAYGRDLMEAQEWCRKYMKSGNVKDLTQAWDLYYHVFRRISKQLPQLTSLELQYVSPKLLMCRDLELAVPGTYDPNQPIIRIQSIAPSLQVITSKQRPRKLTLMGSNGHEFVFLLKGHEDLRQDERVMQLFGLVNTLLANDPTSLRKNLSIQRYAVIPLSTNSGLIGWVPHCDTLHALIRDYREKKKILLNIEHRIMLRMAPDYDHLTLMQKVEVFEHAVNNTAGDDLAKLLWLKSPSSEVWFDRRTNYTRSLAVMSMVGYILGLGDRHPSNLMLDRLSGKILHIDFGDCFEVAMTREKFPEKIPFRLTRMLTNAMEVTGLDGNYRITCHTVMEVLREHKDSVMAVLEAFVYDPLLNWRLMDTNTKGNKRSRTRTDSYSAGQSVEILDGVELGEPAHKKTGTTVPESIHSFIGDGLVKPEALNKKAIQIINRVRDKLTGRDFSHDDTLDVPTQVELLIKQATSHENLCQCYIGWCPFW

CC(C)Cn1c(N2CCN(S(C)(=O)=O)CC2)nc2c(N3CCOCC3)nc(-c3cnc(N)nc3)nc21 [Example 1, 5-{9-Isobutyl-8-[4-(methylsulfonyl)piperazin-1-yl]-6-morpholin-4-yl-9H-purin-2-yl}pyrimidin-2-amine]
IC50 [1]: 0.01 to 0.03 µM

CC(=O)N1CCN(c2nc3c(N4CCOCC4)nc(-c4cnc(N)nc4)nc3n2CC(C)C)CC1 [Example 2, 5-[8-(4-Acetylpiperazin-1-yl)-9-isobutyl-6-morpholin-4-yl-9H-purin-2-yl]pyrimidin-2-amine]
IC50 [1]: 0.01 to 0.03 µM

CS(=O)(=O)N1CCN(c2nc3c(N4CCOCC4)nc(-c4cnc(N)nc4)nc3n2CC2CC2)CC1 [Example 3, 5-{9-(Cyclopropylmethyl)-8-[4-(methylsulfonyl)piperazin-1-yl]-6-morpholin-4-yl-9H-purin-2-yl}pyrimidin-2-amine]
IC50 [1]: 0.01 to 0.03 µM
inhibition at 10 mg/kg [2]: > 90%

Cc1nc(N)ncc1-c1nc(N2CCOCC2)c2nc(N3CCN(S(C)(=O)=O)CC3)n(CC3CC3)c2n1 [Example 6, 5-{9-(Cyclopropylmethyl)-8-[4-(methylsulfonyl)piperazin-1-yl]-6-morpholin-4-yl-9H-purin-2-yl}-4-methylpyrimidin-2-amine]
IC50 [1]: 0.1 to 0.5 µM

CS(=O)(=O)N1CCN(c2nc3c(N4CCOCC4)nc(-c4cnc(N)nc4)nc3n2CC(F)(F)F)CC1 [Example 8, 5-{8-[4-(Methylsulfonyl)piperazin-1-yl]-6-morpholin-4-yl-9-(2,2,2-trifluoroethyl)-9H-purin-2-yl}pyrimidin-2-amine]
IC50 [1]: < 0.01 µM
inhibition at 10 mg/kg [2]: > 90%

CC(=O)N1CCN(c2nc3c(N4CCOCC4)nc(-c4cnc(N)nc4)nc3n2CC2CC2)CC1 [Example 10, 5-[8-(4-Acetylpiperazin-1-yl)-9-(cyclopropylmethyl)-6-morpholin-4-yl-9H-purin-2-yl]pyrimidin-2-amine]
IC50 [1]: 0.01 to 0.03 µM

CNc1ncc(-c2nc(N3CCOCC3)c3nc(N4CCN(S(C)(=O)=O)CC4)n(CC(F)(F)F)c3n2)cn1 [Example 11, N-Methyl-5-{8-[4-(methylsulfonyl)piperazin-1-yl]-6-morpholin-4-yl-9-(2,2,2-trifluoroethyl)-9H-purin-2-yl}pyrimidin-2-amine]
IC50 [1]: < 0.01 µM

C[C@@H]1CN(c2nc3c(N4CCOCC4)nc(-c4cnc(N)nc4)nc3n2CC(F)(F)F)C[C@H](C)N1 [Example 14, 5-[8-(cis-3,5-Dimethylpiperazin-1-yl)-6-morpholin-4-yl-9-(2,2,2-trifluoroethyl)-9H-purin-2-yl]pyrimidin-2-amine]
IC50 [1]: 0.01 to 0.03 µM

CC(C)Cn1c(N2CCN(S(C)(=O)=O)[C@@H](C)C2)nc2c(N3CCOCC3)nc(-c3cnc(N)nc3)nc21 [Example 53, 5-{9-Isobutyl-8-[(3S)-3-methyl-4-(methylsulfonyl)piperazin-1-yl]-6-morpholin-4-yl-9H-purin-2-yl}pyrimidin-2-amine]
IC50 [1]: 0.01 to 0.03 µM

CC(C)Cn1c(N2CCN(S(C)(=O)=O)[C@H](C)C2)nc2c(N3CCOCC3)nc(-c3cnc(N)nc3)nc21 [Example 54, 5-{9-Isobutyl-8-[(3R)-3-methyl-4-(methylsulfonyl)piperazin-1-yl]-6-morpholin-4-yl-9H-purin-2-yl}pyrimidin-2-amine]
IC50 [1]: 0.03 to 0.1 µM

CC(C)Cn1c(N2CCN(C(=O)CN(C)C)CC2)nc2c(N3CCOCC3)nc(-c3cnc(N)nc3)nc21 [Example 55, 5-(8-{4-[(Dimethylamino)acetyl]piperazin-1-yl}-9-isobutyl-6-morpholin-4-yl-9H-purin-2-yl)pyrimidin-2-amine]
IC50 [1]: 0.03 to 0.1 µM

CS(=O)(=O)C1CCN(c2nc3c(N4CCOCC4)nc(-c4cnc(N)nc4)nc3n2CC(F)(F)F)CC1 [Example 57, 5-{8-[4-(Methylsulfonyl)piperidin-1-yl]-6-morpholin-4-yl-9-(2,2,2-trifluoroethyl)-9H-purin-2-yl}pyrimidin-2-amine]
IC50 [1]: < 0.01 µM
inhibition at 10 mg/kg [2]: > 90%

CC(=O)N1CCN(c2nc3c(N4CCOCC4)nc(-c4cnc(N)nc4)nc3n2CC(F)(F)F)C[C@H]1C [Example 60, 5-{8-[(3R)-4-Acetyl-3-methylpiperazin-1-yl]-6-morpholin-4-yl-9-(2,2,2-trifluoroethyl)-9H-purin-2-yl}pyrimidin-2-amine]
IC50 [1]: < 0.01 µM
inhibition at 10 mg/kg [2]: > 90%

C[C@@H]1CN(c2nc3c(N4CCOCC4)nc(-c4cnc(N)nc4)nc3n2CC(F)(F)F)CCN1S(C)(=O)=O [Example 61, 5-{8-[(3R)-3-Methyl-4-(methylsulfonyl)piperazin-1-yl]-6-morpholin-4-yl-9-(2,2,2-trifluoroethyl)-9H-purin-2-yl}pyrimidin-2-amine]
IC50 [1]: 0.01 to 0.03 µM
inhibition at 10 mg/kg [2]: > 90%

C[C@H]1CN(c2nc3c(N4CCOCC4)nc(-c4cnc(N)nc4)nc3n2CC(F)(F)F)CCN1S(C)(=O)=O [Example 62, 5-{8-[(3S)-3-Methyl-4-(methylsulfonyl)piperazin-1-yl]-6-morpholin-4-yl-9-(2,2,2-trifluoroethyl)-9H-purin-2-yl}pyrimidin-2-amine]
IC50 [1]: < 0.01 µM
inhibition at 10 mg/kg [2]: > 90%

CC(=O)N1CCN(c2nc3c(N4CCOCC4)nc(-c4cnc(N)nc4)nc3n2CC(F)(F)F)C[C@@H]1C [Example 63, 5-{8-[(3S)-4-Acetyl-3-methylpiperazin-1-yl]-6-morpholin-4-yl-9-(2,2,2-trifluoroethyl)-9H-purin-2-yl}pyrimidin-2-amine]
IC50 [1]: < 0.01 µM
inhibition at 10 mg/kg [2]: > 90%

CS(=O)(=O)N1CCN(c2nc3c(N4CCOCC4)nc(-c4cnc(N)nc4)nc3n2CC(F)F)CC1 [Example 64, 5-{9-(2,2-Difluoro-ethyl)-8-[4-(methylsulfonyl)piperazin-1-yl]-6-morpholin-4-yl-9H-purin-2-yl}pyrimidin-2-amine]
IC50 [1]: < 0.01 µM
inhibition at 10 mg/kg [2]: > 90%

CC(=O)C(=O)N1CCN(c2nc3c(N4CCOCC4)nc(-c4cnc(N)nc4)nc3n2CC(F)(F)F)CC1 [Example 65, 1-{4-[2-(2-Aminopyrimidin-5-yl)-6-morpholin-4-yl-9-(2,2,2-trifluoroethyl)-9H-purin-8-yl]piperazin-1-yl}-1-oxoacetone]
IC50 [1]: < 0.01 µM
inhibition at 10 mg/kg [2]: > 90%

CN(C)C(=O)C(=O)N1CCN(c2nc3c(N4CCOCC4)nc(-c4cnc(N)nc4)nc3n2CC(F)(F)F)CC1 [Example 66, 2-{4-[2-(2-Aminopyrimidin-5-yl)-6-morpholin-4-yl-9-(2,2,2-trifluoroethyl)-9H-purin-8-yl]piperazin-1-yl}-N,N-dimethyl-2-oxoacetamide]
IC50 [1]: < 0.01 µM
inhibition at 10 mg/kg [2]: 70 to 90%

Nc1ncc(-c2nc(N3CCOCC3)c3nc(N4CCN(C(=O)CO)CC4)n(CC(F)(F)F)c3n2)cn1 [Example 67, 2-{4-[2-(2-Aminopyrimidin-5-yl)-6-morpholin-4-yl-9-(2,2,2-trifluoroethyl)-9H-purin-8-yl]piperazin-1-yl}-2-oxoethanol]
IC50 [1]: < 0.01 µM
inhibition at 10 mg/kg [2]: 70 to 90%

C[C@H](O)C(=O)N1CCN(c2nc3c(N4CCOCC4)nc(-c4cnc(N)nc4)nc3n2CC(F)(F)F)CC1 [Example 68, (2S)-1-{4-[2-(2-Aminopyrimidin-5-yl)-6-morpholin-4-yl-9-(2,2,2-trifluoroethyl)-9H-purin-8-yl]piperazin-1-yl}-1-oxopropan-2-ol]
IC50 [1]: < 0.01 µM
inhibition at 10 mg/kg [2]: > 90%

CNc1ncc(-c2nc(N3CCOCC3)c3nc(N4CCN(CC(=O)N(C)C)[C@H](C)C4)n(CC(F)(F)F)c3n2)cn1 [Example 87, N,N-Dimethyl-2-[(2R)-2-methyl-4-{2-[2-(methylamino)pyrimidin-5-yl]-6-morpholin-4-yl-9-(2,2,2-trifluoroethyl)-9H-purin-8-yl}piperazin-1-yl]acetamide]
IC50 [1]: 0.01 to 0.03 µM

CC(=O)N1CCN(c2nc3c(N4CCOCC4)nc(-c4cnc(N)nc4)nc3n2CC(C)C)C[C@H]1C [Example 99, 5-{8-[(3R)-4-Acetyl-3-methylpiperazin-1-yl]-9-isobutyl-6-morpholin-4-yl-9H-purin-2-yl}pyrimidin-2-amine]
IC50 [1]: 0.01 to 0.03 µM

C[C@H]1COCCN1c1nc(-c2cnc(N)nc2)nc2c1nc(N1CCN(S(C)(=O)=O)CC1)n2CC(F)(F)F [Example 127, 5-{6-[(3S)-3-Methylmorpholin-4-yl]-8-[4-(methylsulfonyl)piperazin-1-yl]-9-(2,2,2-trifluoroethyl)-9H-purin-2-yl}pyrimidin-2-amine]
IC50 [1]: < 0.01 µM

CC(=O)N1CCN(c2nc3c(N4CCOC[C@@H]4C)nc(-c4cnc(N)nc4C)nc3n2CC2CC2)CC1 [Example 128, 5-{8-(4-acetylpiperazin-1-yl)-9-(cyclopropylmethyl)-6-[(3S)-3-methylmorpholin-4-yl]-9H-purin-2-yl}-4-methylpyrimidin-2-amine]
IC50 [1]: 0.1 to 0.5 µM
